From paper PMC9506633, “Design, synthesis, anti-proliferative evaluation, docking, and MD simulations studies of new thiazolidine-2,4-diones targeting VEGFR-2 and apoptosis pathway” (PLoS ONE, 2022)
“Also recorded” adds a separate entry of the source.

Columns and labels:
[1] = system: A549; assay: MTT anti-proliferative assay, A549; type: cell-based; settings: for IC50: Homo sapiens, A549 cell line, MTT; for Selectivity index (A549): SI = Cytotoxicity against Vero cells / Cytotoxicity against A549 cell line
Method: (§1) The cytotoxicity effects of the synthesized candidates were evaluated against A549, Caco-2, HepG2, and MDA-mb-231 cell lines. MTT assay method was applied using the sub-IC50 concentrations of each compound as the treatment dose. Doxorubicin was used as a reference molecule. […] Also, it was noticed that Caco-2 was the most sensitive cell line.
(§2) The synthesized compounds were evaluated for their anti-proliferative activities against A549, Caco-2, HepG2, and MDA-mb-231 cell lines using the MTT assay protocol as described in S.1.2. Section in S1 File.
(§3) Mammalian cell lines culture
(§4) CaCo-2, and A549 cell lines were cultured on DMEM media, meanwhile MDA-MB-231 and hepG-2 cell line were cultured on RBMI media. The cultured media were supplemented with 200 mM L-glutamine, 10.0% fetal bovine serum (Lonza), and 1.0% penicillin/streptomycin. Cells were seeded into 25.0 cm tissue culture flasks and incubated at 37 ◦C in a 5.0% CO 2 incubator for 24 h or till confluency.
(§5) The safety profiles of the tested compounds were checked on one non-cancerous cell line (Vero) to […]
(§6) of 100.0 µl of 6×10^4 cell/ml cells was seeded in to each well of a 96-well plate and then the plates were incubated at 37 °C in a humidified 5.0% CO2 incubator for 24 h. At the end of incubation period, the exhausted medium was replaced with 100.0 µl of different concentrations of the designated treatment (prepared in RPMI medium starting from 1.0 mM). The inoculated plates were incubated at the same growth conditions for another 24 h. At the end of incubation, cellular viability was assessed using MTS assay kit (Promega) according to the manual instruction.
(§7) S.1.2. In-vitro anticancer activity
(§8) Anticancer activities of the tested compounds against CaCo-2, MDA-MB-231, and hepG-2 cell lines were quantified using MTS assay kit (Promega) as described by the Manufacturer. […]

[2] = MTT anti-proliferative assay, Caco-2; type: cell-based; settings: African green monkey (Vero); human (Caco-2); SI = Cytotoxicity against Vero cells / Cytotoxicity against Caco-2 cell line; read-out: Selectivity index (Caco-2)
Method: as §1, §2, §3, §4, §5, §6, §7, §8

[3] = system: Caco-2; assay: MTT anti-proliferative assay, Caco-2; type: cell-based; settings: Homo sapiens; Caco-2 cell line, MTT; read-out: Anti-proliferative activity (IC50 μM) Caco2
Method: as §1, §2, §3, §4, §5, §6, §7, §8

[4] = system: HepG2; assay: MTT anti-proliferative assay, HepG2; type: cell-based; settings: for IC50: Homo sapiens, HepG2 cell line, MTT; for Selectivity index (HepG2): SI = Cytotoxicity against Vero cells / Cytotoxicity against HepG2 cell line
Method: as §1, §2, §3, §4, §5, §6, §7, §8

[5] = system: MDA-mb-231; assay: MTT anti-proliferative assay, MDA-mb-231; type: cell-based; settings: for IC50: Homo sapiens, MDA-mb-231 cell line, MTT; for Selectivity index (MDA-MB-231): SI = Cytotoxicity against Vero cells / Cytotoxicity against MDA-MB-231 cell line
Method: as §1, §2, §3, §4, §5, §6, §7, §8

[6] = target: T1, VEGFR-2 (Homo sapiens, UniProt P35968); assay: In vitro VEGFR-2 inhibition (VEGFR-2 ELISA kit); type: biochemical; settings: for IC50: ELISA kit; for HillSlope (best-fit value) / LogIC50 (best-fit value): dose-response curve fit, raw data S.5
T1 construct: purchased
T1 sequence (P35968 20-1356): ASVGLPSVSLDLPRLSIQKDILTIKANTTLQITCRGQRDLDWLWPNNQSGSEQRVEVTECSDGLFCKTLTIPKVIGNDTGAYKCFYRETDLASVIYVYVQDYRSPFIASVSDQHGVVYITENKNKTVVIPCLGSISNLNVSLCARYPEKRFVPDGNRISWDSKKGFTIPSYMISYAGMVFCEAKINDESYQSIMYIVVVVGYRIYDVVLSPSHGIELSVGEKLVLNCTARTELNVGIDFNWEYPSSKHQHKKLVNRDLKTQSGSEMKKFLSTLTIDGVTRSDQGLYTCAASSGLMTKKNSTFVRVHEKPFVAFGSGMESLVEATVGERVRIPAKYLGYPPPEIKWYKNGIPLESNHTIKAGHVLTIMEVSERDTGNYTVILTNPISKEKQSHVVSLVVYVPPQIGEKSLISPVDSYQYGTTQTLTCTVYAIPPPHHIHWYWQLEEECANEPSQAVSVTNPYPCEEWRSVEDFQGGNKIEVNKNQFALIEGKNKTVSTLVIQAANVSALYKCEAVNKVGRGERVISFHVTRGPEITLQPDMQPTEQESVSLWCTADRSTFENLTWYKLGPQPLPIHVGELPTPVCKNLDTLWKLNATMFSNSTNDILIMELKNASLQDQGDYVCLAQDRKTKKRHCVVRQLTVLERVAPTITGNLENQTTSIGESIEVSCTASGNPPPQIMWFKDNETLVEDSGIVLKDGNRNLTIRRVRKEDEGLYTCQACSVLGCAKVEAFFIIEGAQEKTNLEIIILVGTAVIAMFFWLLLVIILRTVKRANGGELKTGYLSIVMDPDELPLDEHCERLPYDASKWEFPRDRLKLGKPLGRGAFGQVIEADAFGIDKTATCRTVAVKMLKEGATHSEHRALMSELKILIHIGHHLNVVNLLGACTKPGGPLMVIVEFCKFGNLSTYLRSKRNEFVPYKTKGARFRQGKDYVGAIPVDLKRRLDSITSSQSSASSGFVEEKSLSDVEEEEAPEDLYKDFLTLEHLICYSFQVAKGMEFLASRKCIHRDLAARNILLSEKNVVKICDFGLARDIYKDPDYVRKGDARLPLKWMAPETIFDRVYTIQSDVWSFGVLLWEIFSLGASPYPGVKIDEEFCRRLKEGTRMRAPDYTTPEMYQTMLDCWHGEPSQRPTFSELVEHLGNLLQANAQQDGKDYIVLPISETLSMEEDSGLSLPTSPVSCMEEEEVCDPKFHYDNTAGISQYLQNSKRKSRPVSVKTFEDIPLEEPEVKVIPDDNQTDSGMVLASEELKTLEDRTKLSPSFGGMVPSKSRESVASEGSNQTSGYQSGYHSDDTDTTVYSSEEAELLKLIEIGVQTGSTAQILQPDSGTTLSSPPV
Method: Compounds 10a, b and 14a-c were evaluated for their VEGFR-2inhibitory activity.
VEGFR-2 ELISA kit was used in this test as described in S.1.3. Section in S1 File. […]
S.1.3. In vitro VEGFR-2 kinase assay
All the synthesized compounds were tested for its inhibitory activity against VEGFR-2. Human VEGFR-2 ELISA kit (Enzyme-Linked Immunosorbent Assay) was utilized in this test. At first, specific antibody for VEGFR-2 was seeded on a 96-well plate and 100 μL of the standard solution or the tested compound was added, all were incubated at room temperature for 2.5 h. Then washed, 100 μL of the prepared biotin antibody was added, then incubated at room temperature for additional 1 h. and washed. Then, 100 μL of streptavidin solution was added and incubated for 45 min. at room temperature. Washed again, 100 μL of TMB Substrate reagent was added and incubated for 30 min. at room temperature. 50 μL of the stop solution was added, then read at 450 nm immediately. The standard curve was drawn, concentrations on the X-axis and the absorbance

[7] = Safety assay: cytotoxicity against Vero non-cancer cell line; type: cell-based; settings: African green monkey, Vero cells (non-cancer cell line); Vero normal cell line
Method: In this work, the safety pattern of the synthesized derivatives 10a, b and 14a-c was also evaluated by testing their in vitro cytotoxicity against Vero non-cancer cell line using the MTT assay protocol.
Section in S1 File.
Mammalian cell lines culture […]
The cultured media were supplemented with 200 mM L-glutamine, 10.0% fetal bovine serum (Lonza), and 1.0% penicillin/streptomycin. Cells were seeded into 25.0 cm tissue culture flasks and incubated at 37 ◦C in a 5.0% CO 2 incubator for 24 h or till confluency.
as §5
as §6, with “instruction. […]” for “instruction.”

[8] = system: Caco-2 cells; assay: In vitro scratch (wound healing, migration) assay; type: cell-based; settings: Caco-2, 1 μM
Method: The in vitro scratch assay[38] was used to assess the prospective of compound 14a to inhibit the ability of Caco-2 cells to migrate and heal. The basic idea behind this test is to create a scratch in a cancer cell line monolayer, measure the diameter at the start time and at regular intervals to investigate the potential of the cancer cell to migrate and heal. The findings of the treated cell line are then compared to the untreated cell line.
Cell Migration assay was conducted according to the reported protocol as described [59]in S.1.5. Section in S1 File.
S.1.4. Selectivity index (SI)
The selectivity index values of the tested compounds on cancer cells were calculated as described by Koch et al., with slight modifications; SI=IC50nc/IC50cc, where IC50nc: the IC50 value of the tested compound on normal cells and IC 50cc: IC50 of the tested compound on cancer cell line .
S.1.5. Wound healing assay (Migration assay)
CaCo-2 cells were grown to 95.0% confluency in a complete DMEM medium and then the wounds were formed using a plastic tip. […] After incubation at 37°C and 5.0% CO2 for 24h, the cells were washed with PBS and the wounds distance was determined as the scratch width of the treated and untreated groups using […]
S.1.6. […] The RTq-PCR was done using SYBR Green dye (QuantiTect SYBR Green PCR Kits) and Light Cycler fluorimeter (Bio-RAD S1000 Tm thermal cycler). […]

[9] = system: Bcl-2; assay: RT-qPCR gene expression in Caco-2, Bcl-2; type: cell-based; settings: Caco-2, 1.5 μM, compared to control cells
Source text: (§9) The molecular anticancer mode of action of 14a was investigated by screening their ability to control the gene expression levels of Bcl2, Bcl-xl, TGF and Survivin genes as reported in S.1.6. Section in S1 File.
(§10) S.1.4. Selectivity index (SI) […]
(§11) S.1.6. Gene expression pattern alt ernation of cancer cell after 1 4a treatment The molecular anticancer mode of action of 14a was investigated by screening their ability to affect the gene expression levels of Bcl2, Bcl -xl, TGF and Survivin genes using specific forward and reverse primers and RTq-PCR technique (Table 1) in CaCo-2 cells (chosen as the most sensitive cancer cell line). After cellular treatment, CaCo-2 cell line was cultured into 12 well plates (6×10^3 cell/ml) for 24 h. with the sub-IC50 concentration of 14a. After treatment, total RNA extraction was performed using RNA extraction kit (Qiagen, Germany). Then, 1 ug of the obtained RNA was used to synthesiz cDNA using cDNA synthesis kit (Promega Corp., Madison, WI) as recommended by the manufacturer. Simultaneously, GAPDH forward and reverse primers (Table 1) were used to amplify the house keeping gene as internal control for standardization of PCR products. The RTq-PCR was done using SYBR Green dye (QuantiTect SYBR Green PCR Kits) and Light Cycler fluorimeter (Bio-RAD S1000 Tm thermal cycler). […]

[10] = system: Bcl-xl; assay: RT-qPCR gene expression in Caco-2, Bcl-xl; type: cell-based; settings: Caco-2, 1.5 μM, compared to control cells
Source text: as §9, §10, §11

[11] = system: Survivin; assay: RT-qPCR gene expression in Caco-2, Survivin; type: cell-based; settings: Caco-2, 1.5 μM, compared to control cells
Source text: as §9, §10, §11

[12] = system: TGF; assay: RT-qPCR gene expression in Caco-2, TGF; type: cell-based; settings: Caco-2, 1.5 μM, compared to control cells
Source text: as §9, §10, §11

COc1ccc2[nH]c(=O)c(/C=C3\SC(=O)N(CC(=O)Nc4ccc(Cl)cc4)C3=O)cc2c1 [Compound 10a, (Z)-N-(4-Chlorophenyl) -2-(5-((6-methoxy-2-oxo-1,2-dihydroquinolin-3-yl)methylene) -2,4-dioxothiazolidin-3-yl)acetamide]
IC50 [1]: 85 ± 7.5 µM
Selectivity index (A549) [1]: 2.280
selectivity ratio [2]: 2.35
IC50 [3]: 82.5 ± 7.2 µM
IC50 [4]: 174 ± 16.3 µM
Selectivity index (HepG2) [4]: 1.118
IC50 [5]: 132 ± 5.2 µM
Selectivity index (MDA-MB-231) [5]: 1.460
IC50 [6]: 0.0652 ± 0.0055 µM
HillSlope (best-fit value) [6]: -0.4587
LogIC50 (best-fit value) [6]: 1.814 Log (nM)
IC50 at 24 h [7]: 194 ± 18.2 µM

COc1ccc2[nH]c(=O)c(/C=C3\SC(=O)N(CC(=O)Nc4cc(Cl)ccc4Cl)C3=O)cc2c1 [Compound 10b, (Z)-N-(2,5-Dichlorophenyl)-2-(5-((6-methoxy-2-oxo-1,2-dihydroquinolin-3-yl)methylene)-2,4-dioxothiazolidin-3-yl)acetamide]
IC50 [1]: 92.5 ± 8.6 µM
Selectivity index (A549) [1]: 17.080
selectivity ratio [2]: 25.3
IC50 [3]: 62.5 ± 5.4 µM
IC50 [4]: 71 ± 6.4 µM
Selectivity index (HepG2) [4]: 22.250
IC50 [5]: 31.5 ± 2.5 µM
Selectivity index (MDA-MB-231) [5]: 51.333
IC50 [6]: 0.165 ± 0.0153 µM
HillSlope (best-fit value) [6]: -0.3514
LogIC50 (best-fit value) [6]: 2.216 Log (nM)
IC50 at 24 h [7]: 1580 ± 155 µM

O=C(CN1C(=O)SC(=C2C(=O)Nc3ccccc32)C1=O)Nc1ccc(Cl)cc1 [Compound 14a, N-(4-Chlorophenyl)-2-(2,4-dioxo-5-(2-oxoindolin-3-ylidene)thiazolidin-3-yl)acetamide]
IC50 [1]: 170 ± 14.5 µM
Selectivity index (A549) [1]: 1.704
selectivity ratio [2]: 212
IC50 [3]: 1.5 ± 0.08 µM
IC50 [4]: 31.5 ± 2.5 µM
Selectivity index (HepG2) [4]: 9.196
IC50 [5]: 84 ± 7.3 µM
Selectivity index (MDA-MB-231) [5]: 3.375
IC50 [6]: 0.0915 ± 0.0082 µM
HillSlope (best-fit value) [6]: -0.4675
LogIC50 (best-fit value) [6]: 1.961 Log (nM)
IC50 at 24 h [7]: 290 ± 28.3 µM
Inhibition of migration and healing of Caco-2 cells ([8]; 24 h): inhibit the migration and healing of Caco-2 cells in a significant manner; also recorded: significantly inhibited the ability of cancer cells to migrate and heal
Width of the scratch ([8]; after 24 h, control scratch width at 0 hr 0.356 mm): 0.293 mm
Bcl-2 gene expression level [9]: significant reduction; also recorded: significant down-regulation; also recorded: downregulate
Bcl-xl gene expression level [10]: non-detectable change
Survivin gene expression level [11]: significant reduction; also recorded: significant down-regulation; also recorded: downregulate
TGF gene expression level [12]: significant reduction; also recorded: significant down-regulation; also recorded: downregulate

O=C(CN1C(=O)SC(=C2C(=O)Nc3ccccc32)C1=O)Nc1cc(Cl)ccc1Cl [Compound 14b, N-(2,5-Dichlorophenyl)-2-(2,4-dioxo-5-(2-oxoindolin-3-ylidene)thiazolidin-3-yl)acetamide]
IC50 [1]: 292 ± 25.1 µM
Selectivity index (A549) [1]: 4.340
selectivity ratio [2]: 17.1
IC50 [3]: 74 ± 6.5 µM
IC50 [4]: 42.5 ± 3.2 µM
Selectivity index (HepG2) [4]: 29.917
IC50 [5]: 94.5 ± 8.4 µM
Selectivity index (MDA-MB-231) [5]: 13.555
IC50 [6]: 0.0858 ± 0.0076 µM
HillSlope (best-fit value) [6]: -0.5620
LogIC50 (best-fit value) [6]: 1.934 Log (nM)
IC50 at 24 h [7]: 1270 ± 126 µM

O=C(CN1C(=O)SC(=C2C(=O)Nc3ccccc32)C1=O)NCCc1ccccc1 [Compound 14c, 2-(2,4-Dioxo-5-(2-oxoindolin-3-ylidene)thiazolidin-3-yl)-N-phenethylacetamide]
IC50 [1]: 282 ± 27.3 µM
Selectivity index (A549) [1]: 3.463
selectivity ratio [2]: 5.07
IC50 [3]: 192 ± 18.1 µM
IC50 [4]: 92 ± 8.1 µM
Selectivity index (HepG2) [4]: 10.601
IC50 [5]: 484 ± 47.2 µM
Selectivity index (MDA-MB-231) [5]: 2.020
IC50 [6]: 0.0815 ± 0.0073 µM
HillSlope (best-fit value) [6]: -0.4220
LogIC50 (best-fit value) [6]: 1.911 Log (nM)

COc1cccc2c1C(=O)c1c(O)c3c(c(O)c1C2=O)C[C@@](O)(C(=O)CO)C[C@@H]3O[C@H]1C[C@H](N)[C@H](O)[C@H](C)O1 [Doxorubicin, reference compound]
IC50 [1]: 86.4 ± 7.1 µM
IC50 [3]: 3.5 ± 0.22 µM
IC50 [4]: 1.2 ± 0.07 µM
IC50 [5]: 0.98 ± 0.001 µM
